Columns and labels:
Assay in all cases: relative viability (nuclei count vs DMSO), 5 days (fraction); higher = more cells survive
Ponatinib + Pictilisib = compound: Cc1ccc(C(=O)Nc2ccc(CN3CCN(C)CC3)c(C(F)(F)F)c2)cc1C#Cc1cnc2cccnn12 [Ponatinib] + CS(=O)(=O)N1CCN(Cc2cc3nc(-c4cccc5[nH]ncc45)nc(N4CCOCC4)c3s2)CC1 [Pictilisib] (partner 1 µM)
In short: (§1)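 Cells from lung cancer lines were seeded into 1536-well plates and, one day later, dosed by pin tool. Treatments were either a single drug or a fixed dose of an anchor drug with five library-drug doses (not always all listed) in √10 steps. After 5 days, nuclei were stained in a one-step fixation (final 0.05% Triton X-100, 1% formaldehyde, 1 ug/ml Hoechst) and counted on 4× images, and relative viability is the treated-to-vehicle nuclei ratio, as the median of duplicate plates.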

Pazopanib + AZD7762 = compound: Cc1ccc(Nc2nccc(N(C)c3ccc4c(C)n(C)nc4c3)n2)cc1S(N)(=O)=O [Pazopanib] + NC(=O)Nc1cc(-c2cccc(F)c2)sc1C(=O)N[C@H]1CCCNC1 [AZD7762] (partner 0.2 µM)
In short: as §1

Pazopanib + OSI-027 = compound: Cc1ccc(Nc2nccc(N(C)c3ccc4c(C)n(C)nc4c3)n2)cc1S(N)(=O)=O [Pazopanib] + COc1cccc2cc(-c3nc([C@H]4CC[C@H](C(=O)O)CC4)n4ncnc(N)c34)[nH]c12 [OSI-027] (partner 0.5 µM)
In short: as §1

Ponatinib + Luminespib = compound: Cc1ccc(C(=O)Nc2ccc(CN3CCN(C)CC3)c(C(F)(F)F)c2)cc1C#Cc1cnc2cccnn12 [Ponatinib] + CCNC(=O)c1noc(-c2cc(C(C)C)c(O)cc2O)c1-c1ccc(CN2CCOCC2)cc1 [Luminespib] (partner 0.01 µM)
In short: as §1

Cell Line	relative viability (Ponatinib + Pictilisib; first compound 0.002 µM)	relative viability (Ponatinib + Pictilisib; first compound 0.006325 µM)	relative viability (Ponatinib + Pictilisib; first compound 0.06325 µM)	relative viability (Ponatinib + Pictilisib; first compound 0.2 µM)	relative viability (Pazopanib + AZD7762; first compound 0.01 µM)	relative viability (Pazopanib + AZD7762; first compound 0.03162 µM)	relative viability (Pazopanib + AZD7762; first compound 0.1 µM)	relative viability (Pazopanib + AZD7762; first compound 0.3162 µM)	relative viability (Pazopanib + AZD7762; first compound 1 µM)	relative viability (Pazopanib + OSI-027; first compound 0.01 µM)	relative viability (Pazopanib + OSI-027; first compound 0.03162 µM)	relative viability (Pazopanib + OSI-027; first compound 0.1 µM)	relative viability (Pazopanib + OSI-027; first compound 0.3162 µM)	relative viability (Pazopanib + OSI-027; first compound 1 µM)	relative viability (Ponatinib + Luminespib; first compound 0.002 µM)	relative viability (Ponatinib + Luminespib; first compound 0.006325 µM)	relative viability (Ponatinib + Luminespib; first compound 0.06325 µM)	relative viability (Ponatinib + Luminespib; first compound 0.2 µM)
NCI-H1975	0.311	0.309	0.408	0.353	0.612	0.667	0.637	0.76	0.692	0.677	0.723	0.861	0.735	0.734	0.248	0.24	0.289	0.165
NCI-H1993	0.804	0.805	0.73	0.868		0.789	0.734	0.883	0.645		0.603	0.599	0.479	0.461	0.778	0.921	0.991	0.932
NCI-H2085	0.489	0.477	0.451	0.488	0.98	0.988	0.928	0.952	1.06	0.817	0.782	0.752	0.719	0.787	0.459	0.459	0.446	0.432
NCI-H2087	0.879	0.831	0.933	0.787	1.36	1.23	1.47	1.18	1.12	0.502	0.567	0.489	0.553	0.487	0.167	0.135	0.178	0.176
NCI-H2126	0.513	0.504	0.587	0.617	0.963	0.947	1.07	0.959	1.04	0.643	0.612	0.68	0.718	0.719	0.874	0.955	1.04	0.873
NCI-H2170	0.325	0.322	0.351	0.354	0.744	0.967	0.94	0.896	0.815	0.728	0.695	0.719	0.703	0.655	0.671	0.697	0.665	0.646
NCI-H2347	0.677	0.849	0.692	0.414	0.682	0.711	0.773	0.822	0.787	0.425	0.465	0.402	0.405	0.344	0.6	0.544	0.487	0.435
NCI-H2405	0.388	0.574	0.497	0.403	0.718	0.772	0.702	0.751	0.74	0.628	0.67	0.72	0.656	0.736	0.664	0.833	0.941	0.64
NCI-H3122	0.635	0.7	0.635	0.73	0.962	0.952	1.1	0.95	0.987	0.985	0.958	1.02	1.05	1.26	0.113	0.0854	0.128	0.109
PC-3 [JPC-3]	0.653	0.708	0.885	0.875		0.742	0.725	0.926	0.937	0.929	0.806	0.747	0.756	0.661	0.649	0.697	0.811	0.668
PC-14	0.637	0.691	0.794	0.702	0.422	0.328	0.268	0.372	0.426	0.871	0.937	1.06	0.849	1.01	0.127	0.147	0.195	0.138
RERF-LC-KJ	0.618	0.582	0.781	0.68	0.796	0.915	0.916	1.02	0.992	0.677	0.605	0.605	0.515	0.617	1.17	1.32	1.47	1.21
